The target in experiment [1] is Beta-2 adrenergic receptor (Homo sapiens, UniProt P07550). Kind of experiment: DRUGMATRIX: Adrenergic beta2 radioligand binding (ligand: [3H] CGP-12177). It is filed as cell membranes, Membrane. As to conditions: cho; Not Active = under 50% inhibition at 10 µM.
The target in experiment [2] is 5-hydroxytryptamine receptor 6 (Homo sapiens, UniProt P50406). Format: cell membranes, HeLa, Membrane. The conditions noted are these: hela. Further: in other assays of this panel Not Active means under 50% inhibition at 10 µM.
Chain of 5-hydroxytryptamine receptor 6 (P50406 whole entry): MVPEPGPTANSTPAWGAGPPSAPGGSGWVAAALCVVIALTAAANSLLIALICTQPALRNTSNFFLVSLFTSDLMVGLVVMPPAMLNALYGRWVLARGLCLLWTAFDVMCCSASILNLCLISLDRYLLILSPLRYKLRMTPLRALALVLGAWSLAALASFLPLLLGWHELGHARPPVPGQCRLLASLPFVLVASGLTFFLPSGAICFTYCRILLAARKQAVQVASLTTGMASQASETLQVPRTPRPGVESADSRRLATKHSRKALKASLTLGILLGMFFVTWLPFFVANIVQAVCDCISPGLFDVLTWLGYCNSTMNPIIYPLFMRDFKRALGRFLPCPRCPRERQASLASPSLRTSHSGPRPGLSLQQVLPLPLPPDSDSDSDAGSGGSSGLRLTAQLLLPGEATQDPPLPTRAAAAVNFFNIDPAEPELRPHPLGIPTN
Another experiment concerns the target Vasopressin V1a receptor (Homo sapiens, UniProt P37288). Format: cell membranes, Membrane. As to conditions: hek293. Further: in other assays of this panel Not Active means under 50% inhibition at 10 µM.
For experiment [3], the target named is Prostaglandin G/H synthase 1 (Homo sapiens, UniProt P23219). Kind of experiment: biochemical. It is filed as tissue-based, Platelet.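 Further: inhibition of COX-1 enzyme activity, with arachidonic acid supplied as substrate; in other assays of this panel Not Active means under 50% inhibition at 10 µM.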
Chain of Prostaglandin G/H synthase 1 (P23219 whole entry): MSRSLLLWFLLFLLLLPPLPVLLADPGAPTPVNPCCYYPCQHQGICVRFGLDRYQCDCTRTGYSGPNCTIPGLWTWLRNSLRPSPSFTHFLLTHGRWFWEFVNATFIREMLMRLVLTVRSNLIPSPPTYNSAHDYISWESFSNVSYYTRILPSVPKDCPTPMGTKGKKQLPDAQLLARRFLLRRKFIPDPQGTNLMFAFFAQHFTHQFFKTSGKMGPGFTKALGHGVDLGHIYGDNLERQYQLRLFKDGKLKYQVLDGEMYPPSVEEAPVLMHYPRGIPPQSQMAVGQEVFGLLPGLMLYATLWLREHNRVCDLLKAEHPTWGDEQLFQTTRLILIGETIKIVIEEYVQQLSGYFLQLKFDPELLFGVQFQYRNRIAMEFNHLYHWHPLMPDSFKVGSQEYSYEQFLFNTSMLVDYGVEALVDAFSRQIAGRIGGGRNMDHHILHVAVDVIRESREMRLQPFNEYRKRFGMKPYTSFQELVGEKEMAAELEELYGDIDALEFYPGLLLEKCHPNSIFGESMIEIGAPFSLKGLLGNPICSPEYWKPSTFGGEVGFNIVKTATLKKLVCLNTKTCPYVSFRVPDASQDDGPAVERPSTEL
Experiment [4] in a line: DRUGMATRIX: GABAA, Flunitrazepam, Central radioligand binding (ligand: [3H] Flunitrazepam). It is filed as cell membranes, Rattus norvegicus, Wistar, Brain, Membrane. As to conditions: Not Active = under 50% inhibition at 10 µM.
Experiment [5] is described as follows: DRUGMATRIX: GABAA, Chloride Channel, TBOB radioligand binding (ligand: [3H] TBOB). It is filed as cell membranes, Rattus norvegicus, Wistar, Cerebral cortex, Membrane. As to conditions: Not Active = under 50% inhibition at 10 µM.
A short description of experiment [6]: DRUGMATRIX: Interleukin IL-1 radioligand binding (ligand: [125I] interleukin 1beta). Format: cell membranes, Membrane. As to conditions: nih3t3; Not Active = under 50% inhibition at 10 µM.
Experiment [7] deals with T1, Angiotensin-converting enzyme (Oryctolagus cuniculus, UniProt P12822).
T1 sequence (P12822 whole entry): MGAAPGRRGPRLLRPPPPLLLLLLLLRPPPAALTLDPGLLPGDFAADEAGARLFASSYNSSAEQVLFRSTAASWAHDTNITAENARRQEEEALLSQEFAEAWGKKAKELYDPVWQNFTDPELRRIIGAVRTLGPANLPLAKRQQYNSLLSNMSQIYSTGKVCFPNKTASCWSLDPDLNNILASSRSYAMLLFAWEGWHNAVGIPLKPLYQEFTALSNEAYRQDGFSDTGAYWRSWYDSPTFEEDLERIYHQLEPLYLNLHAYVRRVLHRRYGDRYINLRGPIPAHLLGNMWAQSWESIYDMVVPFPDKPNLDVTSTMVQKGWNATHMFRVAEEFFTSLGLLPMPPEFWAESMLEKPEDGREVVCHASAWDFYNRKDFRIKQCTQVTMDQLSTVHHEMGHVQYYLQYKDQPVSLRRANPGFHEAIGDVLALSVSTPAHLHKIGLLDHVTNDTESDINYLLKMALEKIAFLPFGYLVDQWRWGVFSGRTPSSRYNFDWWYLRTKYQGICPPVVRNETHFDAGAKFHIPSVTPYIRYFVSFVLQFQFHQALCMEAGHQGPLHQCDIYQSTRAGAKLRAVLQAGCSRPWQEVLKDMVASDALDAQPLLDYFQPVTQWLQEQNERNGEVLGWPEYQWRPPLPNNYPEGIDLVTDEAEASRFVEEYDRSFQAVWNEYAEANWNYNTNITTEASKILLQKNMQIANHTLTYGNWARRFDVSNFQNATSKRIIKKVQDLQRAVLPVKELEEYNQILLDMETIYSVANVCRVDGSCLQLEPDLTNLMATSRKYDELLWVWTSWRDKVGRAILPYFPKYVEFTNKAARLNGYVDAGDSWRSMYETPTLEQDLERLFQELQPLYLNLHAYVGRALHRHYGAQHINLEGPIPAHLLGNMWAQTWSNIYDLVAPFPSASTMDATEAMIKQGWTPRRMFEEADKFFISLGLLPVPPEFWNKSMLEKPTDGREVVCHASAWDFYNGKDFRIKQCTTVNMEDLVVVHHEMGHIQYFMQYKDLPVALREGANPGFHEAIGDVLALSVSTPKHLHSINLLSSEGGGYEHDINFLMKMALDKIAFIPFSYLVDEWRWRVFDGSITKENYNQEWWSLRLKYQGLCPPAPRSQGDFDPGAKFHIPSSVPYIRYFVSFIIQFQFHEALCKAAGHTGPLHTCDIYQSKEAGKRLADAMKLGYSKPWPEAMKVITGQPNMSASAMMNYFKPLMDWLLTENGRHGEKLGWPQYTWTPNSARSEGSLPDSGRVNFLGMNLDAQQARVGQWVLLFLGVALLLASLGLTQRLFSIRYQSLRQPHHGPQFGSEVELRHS
It is filed as tissue-based, Lung.

The structures appear in SMILES notation.

Chain of Vasopressin V1a receptor (P37288 whole entry): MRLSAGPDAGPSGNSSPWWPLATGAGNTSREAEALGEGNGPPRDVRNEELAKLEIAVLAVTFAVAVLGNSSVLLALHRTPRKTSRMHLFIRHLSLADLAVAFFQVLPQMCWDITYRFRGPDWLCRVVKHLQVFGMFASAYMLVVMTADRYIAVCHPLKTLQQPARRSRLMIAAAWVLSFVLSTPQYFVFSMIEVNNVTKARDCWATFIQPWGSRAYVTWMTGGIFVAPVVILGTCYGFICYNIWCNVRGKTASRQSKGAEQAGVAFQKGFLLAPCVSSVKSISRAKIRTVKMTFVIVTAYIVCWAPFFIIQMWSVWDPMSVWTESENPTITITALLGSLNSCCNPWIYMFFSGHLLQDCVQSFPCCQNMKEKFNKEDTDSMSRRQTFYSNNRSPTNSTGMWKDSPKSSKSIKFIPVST
Chain of Beta-2 adrenergic receptor (P07550 whole entry): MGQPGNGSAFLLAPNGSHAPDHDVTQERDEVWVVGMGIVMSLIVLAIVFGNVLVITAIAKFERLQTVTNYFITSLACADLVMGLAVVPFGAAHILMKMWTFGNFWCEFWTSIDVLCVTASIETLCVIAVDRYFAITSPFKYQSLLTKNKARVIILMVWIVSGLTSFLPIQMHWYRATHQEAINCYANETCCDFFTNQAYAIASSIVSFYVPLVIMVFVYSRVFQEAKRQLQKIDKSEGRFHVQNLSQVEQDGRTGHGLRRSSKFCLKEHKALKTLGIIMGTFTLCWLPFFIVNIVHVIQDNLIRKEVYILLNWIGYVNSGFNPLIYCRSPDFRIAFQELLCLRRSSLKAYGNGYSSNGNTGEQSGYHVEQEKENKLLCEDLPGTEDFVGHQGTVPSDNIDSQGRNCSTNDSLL

As a reminder, the IC50 is the point on the concentration scale where inhibition reaches its midpoint. For the molecule `Cc1ccccc1N1C(=O)c2cc(S(N)(=O)=O)c(Cl)cc2NC1C` (centres undefined) [METOLAZONE], the IC50 entry (in experiment [1]; in experiment [2]; against Vasopressin V1a receptor; in experiment [3] (platelet); in experiment [4]; in experiment [5]) was “Not Active” each time. The IC50 entry in experiment [6] and in experiment [7] was “Not Active” each time. Further, the Ki result in experiment [4], in experiment [5] and in experiment [6] was “Not Active” in each case.
Take `Cc1ccc(N(CC2=NCCN2)c2cccc(O)c2)cc1` [PHENTOLAMINE]: the IC50 entry (in experiment [1]; in experiment [2]; against Vasopressin V1a receptor; in experiment [3] (platelet); in experiment [4]; in experiment [5]) was “Not Active” throughout. Moreover, the IC50 entry in experiment [6] and in experiment [7] was “Not Active” throughout. Further, the Ki result in experiment [4], in experiment [5] and in experiment [6] was “Not Active” in each case.
Turning to `Nc1nc2c(ncn2CCC(CO)CO)c(=O)[nH]1` [PENCICLOVIR], the IC50 entry (in experiment [1]; in experiment [2]; against Vasopressin V1a receptor; in experiment [3] (platelet); in experiment [4]; in experiment [5]) was “Not Active” each time. The IC50 entry in experiment [6] and in experiment [7] was “Not Active” each time. In addition, the Ki result in experiment [4], in experiment [5] and in experiment [6] was “Not Active” in each case.
Consider `CCOc1ccc(NC(C)=O)cc1` [PHENACETIN], for which the IC50 result (in experiment [1]; in experiment [2]; at Vasopressin V1a receptor; in experiment [3] (platelet); in experiment [4]; in experiment [5]) was “Not Active” in each case. Also, the IC50 entry in experiment [6] and in experiment [7] was “Not Active” in each case. Also, the Ki result in experiment [4], in experiment [5] and in experiment [6] was “Not Active” throughout.
As to `Cc1cc(C(C#N)c2ccc(Cl)cc2)c(Cl)cc1NC(=O)c1cc(I)cc(I)c1O` (centres undefined) [CLOSANTEL], the IC50 entry (in experiment [1]; in experiment [2]; on Vasopressin V1a receptor; in experiment [3] (platelet); in experiment [4]; in experiment [5]) was “Not Active” in each case. Moreover, the IC50 result in experiment [6] and in experiment [7] was “Not Active” throughout. In addition, the Ki result in experiment [4], in experiment [5] and in experiment [6] was “Not Active” throughout.
In the case of `C[C@]12CC[C@@H]3c4ccc(O)cc4CC[C@H]3[C@@H]1CCC2=O` [ESTRONE], the IC50 result (in experiment [1]; in experiment [2]; against Vasopressin V1a receptor; in experiment [3] (platelet); in experiment [4]; in experiment [5]) was “Not Active” each time. Also, the IC50 result in experiment [6] and in experiment [7] was “Not Active” in each case. Also, the Ki result in experiment [4], in experiment [5] and in experiment [6] was “Not Active” in each case.
With `NC1=NC(=O)C(c2ccccc2)O1` (centres undefined) [PEMOLINE], the IC50 result (in experiment [1]; in experiment [2]; on Vasopressin V1a receptor; in experiment [3] (platelet); in experiment [4]; in experiment [5]) was “Not Active” throughout. Moreover, the IC50 result in experiment [6] and in experiment [7] was “Not Active” each time. Besides, the Ki entry in experiment [4], in experiment [5] and in experiment [6] was “Not Active” throughout.
`CN(C)C(=O)Oc1cc(OC(=O)N(C)C)cc(C(O)CNC(C)(C)C)c1` (centres undefined) [BAMBUTEROL]: the IC50 result (in experiment [1]; in experiment [2]; on Vasopressin V1a receptor; in experiment [3] (platelet); in experiment [4]; in experiment [5]) was “Not Active” each time. Further, the IC50 entry in experiment [6] and in experiment [7] was “Not Active” each time. The Ki entry in experiment [4], in experiment [5] and in experiment [6] was “Not Active” throughout.
On to `C[C@H]1c2cccc(O)c2C(=O)C2=C(O)[C@]3(O)C(=O)C(C(N)=O)=C(O)[C@@H](N(C)C)[C@@H]3[C@@H](O)[C@@H]21.O` [DOXYCYCLINE], for which the IC50 entry (in experiment [1]; in experiment [2]; against Vasopressin V1a receptor; in experiment [3] (platelet); in experiment [4]; in experiment [5]) was “Not Active” in each case. Also, the IC50 entry in experiment [6] and in experiment [7] was “Not Active” in each case. Moreover, the Ki result in experiment [4], in experiment [5] and in experiment [6] was “Not Active” each time.
Turning to `CC1(C)S[C@@H]2[C@H](NC(=O)Cc3ccccc3)C(=O)N2[C@H]1C(=O)O` [PENICILLIN G], the IC50 entry (in experiment [1]; in experiment [2]; at Vasopressin V1a receptor; in experiment [3] (platelet); in experiment [4]; in experiment [5]) was “Not Active” in each case. For the same molecule, the IC50 entry in experiment [6] and in experiment [7] was “Not Active” in each case. Further, the Ki entry in experiment [4], in experiment [5] and in experiment [6] was “Not Active” throughout.
Regarding `C[C@H]1O[C@@H](O[C@H]2[C@@H](O)C[C@H](O[C@H]3[C@@H](O)C[C@H](O[C@H]4CC[C@@]5(C)[C@H](CC[C@@H]6[C@@H]5C[C@@H](O)[C@]5(C)[C@@H](C7=CC(=O)OC7)CC[C@]65O)C4)O[C@@H]3C)O[C@@H]2C)C[C@H](O)[C@@H]1O` [DIGOXIN], the IC50 result (in experiment [1]; in experiment [2]; against Vasopressin V1a receptor; in experiment [3] (platelet); in experiment [4]; in experiment [5]) was “Not Active” throughout. Also, the IC50 entry in experiment [6] and in experiment [7] was “Not Active” throughout. In addition, the Ki result in experiment [4], in experiment [5] and in experiment [6] was “Not Active” in each case.
Regarding `c1ccc2c(c1)c1cccc3ccc4cccc2c4c31` [BENZO[E]PYRENE], the IC50 entry (in experiment [1]; in experiment [2]; against Vasopressin V1a receptor; in experiment [3] (platelet); in experiment [4]; in experiment [5]) was “Not Active” throughout. The IC50 entry in experiment [6] and in experiment [7] was “Not Active” each time. In addition, the Ki entry in experiment [4], in experiment [5] and in experiment [6] was “Not Active” each time.
For the molecule `Sc1ncnc2nc[nH]c12` [MERCAPTOPURINE ANHYDROUS], the IC50 entry in experiment [1] is “Not Active”; in experiment [2], “Not Active”; at Vasopressin V1a receptor it was “Not Active”; in experiment [3] (read-out: IC50) it was 16.2 µM; in experiment [4], “Not Active”; in experiment [5], “Not Active”. The IC50 result in experiment [6] and in experiment [7] was “Not Active” each time. In addition, the Ki entry in experiment [4], in experiment [5] and in experiment [6] was “Not Active” each time.
`O=c1oc2ccccc2c(O)c1Cc1c(O)c2ccccc2oc1=O` [DICUMAROL]: the IC50 result (in experiment [1]; in experiment [2]; against Vasopressin V1a receptor; in experiment [3] (platelet); in experiment [4]; in experiment [5]) was “Not Active” throughout. In addition, the IC50 result in experiment [6] and in experiment [7] was “Not Active” throughout. Also, the Ki result in experiment [4], in experiment [5] and in experiment [6] was “Not Active” throughout.

The values above are taken from ChEMBL document CHEMBL1909046, “DrugMatrix in vitro pharmacology data”.
